# Assay results as given in article PMC2929395 (Chemistry & biology, 2010).
# Entries after “also recorded” stand apart in the source; their conditions may differ. Structures can show the parent of a compound that is named as a salt.
# Tests used:
# [1] = biological target: T1, PanK3 (Homo sapiens, UniProt Q9H999); experiment: PanK3 high-throughput screen, two-step luminescence; type: biochemical
# [2] = biological target: T1, PanK3; experiment: PanK3 radiochemical; type: biochemical; conditions: for % Activation RA: % of maximal activation of PanK3 with respect to the DMSO control; for % Activation RA / PanK3 inhibition (in words): radioactive assay; for EC50 (µM), RA: radiochemical PanK3 assay; for Km: read-out: KM for PanK3, wild-type PanK3, substrate; for PanK3 inhibition by steroids: radiochemical assay, 100 µM compound; for PanK3 inhibition (in words): increasing concentrations of compound; for Reversal of / competition with acetyl-CoA inhibition of PanK3: in the presence of acetyl-CoA, data not shown
# [3] = biological target: T2, PanK3(S195V) (Homo sapiens, UniProt Q9H999, S195V); experiment: PanK3; type: biochemical; conditions: for Km: read-out: KM for PanK3(S195V), substrate; for Inhibition of PanK3(S195V): radioactive assay, 800 ng PanK3(S195V)
# T2 sequence (Q9H999 1-370 S195V): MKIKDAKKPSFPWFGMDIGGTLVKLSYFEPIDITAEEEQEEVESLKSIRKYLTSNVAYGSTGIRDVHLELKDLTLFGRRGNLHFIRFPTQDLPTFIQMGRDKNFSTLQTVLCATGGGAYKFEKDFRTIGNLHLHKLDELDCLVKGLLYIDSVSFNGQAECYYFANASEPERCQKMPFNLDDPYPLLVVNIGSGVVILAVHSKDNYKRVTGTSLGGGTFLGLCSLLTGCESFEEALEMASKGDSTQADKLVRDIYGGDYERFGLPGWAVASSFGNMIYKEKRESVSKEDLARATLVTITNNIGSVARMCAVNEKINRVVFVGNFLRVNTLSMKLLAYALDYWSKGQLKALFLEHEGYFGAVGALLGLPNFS
# [4] = biological target: S. aureus PanK (SaPanK) (Staphylococcus aureus, UniProt Q2FWC7); experiment: SaPanK radiochemical assay; type: biochemical; conditions: radioactive assay, 10 ng SaPanK
# [5] = system: HepG2/C3A cells; experiment: CoA biosynthesis, [3H]pantothenate incorporation into CoA in HepG2/C3A cells; type: cell-based, human; conditions: 24 h labeling, relative to DMSO control
# [6] = biological target: T3, PanK1β (Homo sapiens, UniProt Q8TE04); experiment: Isoform selectivity, purified PanK1β; type: biochemical; conditions: compared to PanK3
# T3 sequence (Q8TE04 1-373 isoform Q8TE04-2): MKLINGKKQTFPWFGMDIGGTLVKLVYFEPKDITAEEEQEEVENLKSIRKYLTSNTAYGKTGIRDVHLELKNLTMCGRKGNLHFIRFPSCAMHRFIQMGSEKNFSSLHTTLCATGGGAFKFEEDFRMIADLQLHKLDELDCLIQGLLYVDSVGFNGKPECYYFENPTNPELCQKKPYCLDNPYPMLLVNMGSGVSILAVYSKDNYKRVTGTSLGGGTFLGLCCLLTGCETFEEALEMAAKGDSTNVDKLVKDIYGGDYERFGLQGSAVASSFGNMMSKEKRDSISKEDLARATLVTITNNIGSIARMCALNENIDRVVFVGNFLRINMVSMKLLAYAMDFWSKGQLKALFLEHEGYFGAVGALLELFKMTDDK
# [7] = biological target: T4, PanK2 (Homo sapiens, UniProt Q9BZ23); experiment: Isoform selectivity, purified PanK2; type: biochemical; conditions: compared to PanK3
# T4 sequence (Q9BZ23 141-570 limits assumed): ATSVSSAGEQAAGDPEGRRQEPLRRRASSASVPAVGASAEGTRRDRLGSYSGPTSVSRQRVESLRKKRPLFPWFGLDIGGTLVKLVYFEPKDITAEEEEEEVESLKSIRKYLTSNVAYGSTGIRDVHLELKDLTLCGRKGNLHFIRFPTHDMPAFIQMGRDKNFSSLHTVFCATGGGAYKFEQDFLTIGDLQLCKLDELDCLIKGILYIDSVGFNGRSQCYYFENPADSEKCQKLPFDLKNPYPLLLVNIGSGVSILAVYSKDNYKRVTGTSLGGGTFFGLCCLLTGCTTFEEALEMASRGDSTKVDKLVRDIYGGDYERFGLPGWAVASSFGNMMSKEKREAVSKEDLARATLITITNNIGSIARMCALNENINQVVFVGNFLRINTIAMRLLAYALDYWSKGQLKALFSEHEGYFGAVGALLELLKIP
# [8] = HTS platform, 10-point concentration series in triplicate, rounded to nearest 0.1 µM
# T1 sequence (Q9H999 whole entry): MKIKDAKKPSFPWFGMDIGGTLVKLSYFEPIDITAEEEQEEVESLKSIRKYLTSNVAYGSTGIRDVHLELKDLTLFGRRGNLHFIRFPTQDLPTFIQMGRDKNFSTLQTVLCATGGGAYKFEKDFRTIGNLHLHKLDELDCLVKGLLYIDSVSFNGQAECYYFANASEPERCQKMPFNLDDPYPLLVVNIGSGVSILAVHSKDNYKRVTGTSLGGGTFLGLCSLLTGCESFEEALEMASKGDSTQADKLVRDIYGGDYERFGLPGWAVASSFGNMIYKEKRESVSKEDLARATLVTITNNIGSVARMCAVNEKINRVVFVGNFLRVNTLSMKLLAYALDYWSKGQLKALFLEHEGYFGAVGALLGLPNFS
# Chain of S. aureus PanK (SaPanK) (Q2FWC7 whole entry): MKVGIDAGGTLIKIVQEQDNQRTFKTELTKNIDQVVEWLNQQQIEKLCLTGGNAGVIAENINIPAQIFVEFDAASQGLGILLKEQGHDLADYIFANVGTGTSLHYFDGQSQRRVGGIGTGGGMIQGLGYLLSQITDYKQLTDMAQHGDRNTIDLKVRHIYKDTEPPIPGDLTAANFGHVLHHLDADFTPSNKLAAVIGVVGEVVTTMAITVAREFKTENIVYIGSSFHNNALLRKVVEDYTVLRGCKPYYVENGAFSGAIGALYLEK
compound,measurement,setting,value
"N=C(N)SCCc1ccc(CCSC(=N)N)cc1 [1,4-PBIT dihydrobromide]",IC50,[1]; [8],0.4 µM
"O=C1C=CC(=O)c2ccccc21 [1,4-naphtoquinone]",% Activation RA,[2],0%
same,"EC50 (µM), RA",[2],Inactive
CC1(C)[C@@H](O)CC[C@]2(C)[C@H]3C(=O)C=C4[C@H]5C[C@@](C)(C(=O)O)CC[C@]5(C)CC[C@@]4(C)[C@]3(C)CC[C@@H]12 [18α-glycyrrhetinic acid],IC50,[1],3.6 µM
Nc1ncnc2c1ncn2[C@@H]1O[C@H](COP(=O)(O)OP(=O)(O)O)[C@@H](O)[C@H]1O [ADP],Kinetic mechanism of PanK3 inhibition with respect to ATP,[2],competitive inhibitor
Nc1ncnc2c1ncn2[C@@H]1O[C@H](COP(=O)(O)OP(=O)(O)OP(=O)(O)O)[C@@H](O)[C@H]1O [ATP],Km,[2],311 ± 53 µM
same,Km,[3],191 ± 27 µM
O=C1C(Cl)=C(Cl)C(=O)C(Cl)=C1Cl [Chloranil],IC50,[1],5.9 µM
C[C@]12CC[C@H](OS(=O)(=O)O)CC1=CC[C@@H]1[C@@H]2CC[C@]2(C)C(=O)CC[C@@H]12 [Dehydroisoandrosterone sulfate],PanK3 inhibition by steroids,[2],inhibited the enzyme more potently than their non-sulfated versions
C[C@]12CC[C@H](O)CC1=CC[C@@H]1[C@@H]2CC[C@]2(C)C(=O)CC[C@@H]12 [Dehydroisoandrosterone],PanK3 inhibition by steroids,[2],decreased the enzyme activity
CN[C@@H](C)[C@H](O)c1ccccc1 [Ephedrine hydrochloride],IC50,[1],1.6 µM
CC(=O)O[C@H]1C[C@@]2(C)[C@@H](C[C@@H](O)[C@H]3[C@@]4(C)CC[C@@H](O)[C@@H](C)[C@@H]4CC[C@@]32C)/C1=C(\CCC=C(C)C)C(=O)O [Fusidic acid],IC50,[1],0.1 µM
CN(CCOc1ccc(C[C@H](Nc2ccccc2C(=O)c2ccccc2)C(=O)O)cc1)c1ccccn1 [GW1929],PanK3 inhibition (in words),[2],either had no effect or very weak activity
O=C1Nc2ccc(I)cc2/C1=C/c1cc(Br)c(O)c(Br)c1 [GW5074],IC50,[1]; [8],9.2 µM
O=C(Nc1ccccc1)c1cc([N+](=O)[O-])ccc1Cl [GW9662],PanK3 inhibition (in words),[2],either had no effect or very weak activity
Cc1cc(SCc2sc(-c3ccc(C(F)(F)F)cc3)nc2C)ccc1OCC(=O)O [GW501516],IC50,[2],~100 µM
Cc1cnc(C(=O)NCCc2ccc(S(=O)(=O)NC(=O)NC3CCCCC3)cc2)cn1 [Glipizide],IC50,[1],5.2 µM
same,IC50,[2],8.5 µM
Oc1c(Cl)cc(Cl)c(Cl)c1Cc1c(O)c(Cl)cc(Cl)c1Cl [Hexachlorophene],IC50,[1],8.8 µM
O=C1NC(=O)C(Cc2ccc3cc(OCc4ccccc4F)ccc3c2)S1 (stereo not shown) [MCC-555],Kinetic mechanism of PanK3 inhibition with respect to ATP,[2],uncompetitive
same,Inhibition of PanK3(S195V),[3],refractory to inhibition
same,Inhibition of SaPanK,[4],refractory; also recorded: not inhibited
same,Effect on CoA biosynthesis (pantothenate incorporation into CoA),[5],inhibited pantothenate incorporation into CoA
same,Effect on PanK1β activity,[6],inhibited
same,Effect on PanK2 activity,[7],inhibited
CCCCCCCC/C=C\CCCCCCCC(=O)O[C@H](CC(=O)[O-])C[N+](C)(C)C [Oleoyl-carnitine],% Activation RA,[2],140%
same,Reversal of / competition with acetyl-CoA inhibition of PanK3,[2],Competition between acetyl-CoA and oleoyl-carnitine was also observed
same,Effect on CoA biosynthesis (pantothenate incorporation into CoA),[5],activators of CoA biosynthesis
CCCCCCCC/C=C\CCCCCCCC(=O)NCCO [Oleoylethanolamide],EC50,[1],7.9 µM
same,EC50,[2],0.5 µM
same,% Activation RA,[2],120%
CCCCCCCCCCCCCCCC(=O)OC(CC(=O)[O-])C[N+](C)(C)C (stereo not shown) [Palmitoyl-carnitine],EC50,[2],1.6 µM
same,% Activation RA,[2],120%
CCc1ccc(CCOc2ccc(CC3SC(=O)NC3=O)cc2)nc1 (stereo not shown) [Pioglitazone hydrochloride],IC50,[1],1 µM
CC(=O)[C@H]1CC[C@H]2[C@@H]3CC=C4C[C@@H](O)CC[C@]4(C)[C@H]3CC[C@]12C [Pregnenolone],PanK3 inhibition by steroids,[2],weak PanK3 inhibitors
O=C(c1cc(O)c(O)c([N+](=O)[O-])c1)c1ccccc1F [Ro 41-0960],IC50,[1]; [8],3.9 µM
CN(CCOc1ccc(CC2SC(=O)NC2=O)cc1)c1ccccn1 (stereo not shown) [Rosiglitazone],Effect on CoA biosynthesis (pantothenate incorporation into CoA),[5],inhibited pantothenate incorporation into CoA
CC/C(=C(\c1ccccc1)c1ccc(OCCN(C)C)cc1)c1ccccc1 [Tamoxifen],EC50,[1],3.4 µM
same,EC50,[2],4 µM
same,% Activation RA,[2],140%
same,Reversal of / competition with acetyl-CoA inhibition of PanK3,[2],reversed the inhibition of PanK3 by acetyl-CoA
same,Effect on CoA biosynthesis (pantothenate incorporation into CoA),[5],most potent activator of CoA biosynthesis in cells
same,Effect on PanK1β activity,[6],inhibited
same,Effect on PanK2 activity,[7],not affected
CCCCNC(=O)NS(=O)(=O)c1ccc(C)cc1 [Tolbutamide],PanK3 inhibition (in words),[2],ineffective
Cc1c(Cl)cccc1Nc1ccccc1C(=O)O [Tolfenamic acid],IC50,[1],9.2 µM
N#C/C(=C\c1ccc(O)c(O)c1)C(=O)N1CCc2ccccc21 [Tyrphostin AG 528],IC50,[1]; [8],3 µM
C#C[C@]1(O)CC[C@H]2[C@@H]3CCC4=Cc5nc6nc7ccccc7n6cc5C[C@]4(C)[C@H]3CC[C@@]21C [WIN 62577],IC50,[1]; [8],0.7 µM
CC(=O)SCCNC(=O)CCNC(=O)[C@H](O)C(C)(C)COP(=O)(O)OP(=O)(O)OC[C@H]1O[C@@H](n2cnc3c(N)ncnc32)[C@H](O)[C@@H]1OP(=O)(O)O [acetyl-CoA],Inhibition of PanK3(S195V),[3],refractory to inhibition
CC(C)CCC[C@@H](C)[C@H]1CC[C@H]2[C@@H]3CC=C4C[C@@H](O)CC[C@]4(C)[C@H]3CC[C@]12C [cholesterol],PanK3 inhibition by steroids,[2],weak PanK3 inhibitors
C[C@]12CC[C@@H]3c4ccc(OS(=O)(=O)O)cc4CC[C@H]3[C@@H]1CC[C@@H]2O [estradiol sulfate],PanK3 inhibition by steroids,[2],no effect
C[C@]12CC[C@@H]3c4ccc(OS(=O)(=O)O)cc4CC[C@H]3[C@@H]1CCC2=O [estrone sulfate],PanK3 inhibition by steroids,[2],inhibited the enzyme more potently than their non-sulfated versions
NS(=O)(=O)c1cc(C(=O)O)c(NCc2ccco2)cc1Cl [furosemide],Activator hit in primary HTS,"[1]; screened at 12 µM, cut-off >25% activation",did not make the cutoff for an activator of PanK3
CC(C)[C@H]1CC[C@H](C(=O)N[C@H](Cc2ccccc2)C(=O)O)CC1 [nateglinide],IC50,[2],> 100 µM
CC(C)(CO)[C@@H](O)C(=O)NCCC(=O)NCCS [pantetheine],Km,[2],23 ± 2 µM
same,Km,[3],59 ± 3 µM
CCOc1cc(CC(=O)N[C@@H](CC(C)C)c2ccccc2N2CCCCC2)ccc1C(=O)O [repaglinade],IC50,[2],> 100 µM
Phenylmercuric acid,% Activation RA,[2],0%
same,"EC50 (µM), RA",[2],Inactive
Psi-Rhodomyrtoxin,IC50,[1]; [8],1.6 µM
Tyrphostin AG 808,IC50,[1]; [8],9 µM
